Read-outs that look alike come from different tables or passages of the source.
What was measured:
Assay type in all cases: cell-based
A431 = assay: Cell growth inhibition assay (CellTiter-Glo), A431; details: Homo sapiens, A-431, 72 h, A431 cells, three days, read-out: A431 GI50
Method in brief: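 Cells were plated in 96-well plates (Corning 3610) at 90 μL of culture medium per well and incubated overnight at 37° C. The next day, a 1,000× DMSO compound stock was diluted 1:100 in cell culture medium, and 10 μL was added per well. After shaking for 10 min, luminescence was read on an Envision (PerkinElmer) reader.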

HCC827_LTC = assay: Cell growth inhibition assay (CellTiter-Glo), HCC827_LTC; details: 72 h; Table 8; HCC827 expressing human EGFR L858R/T790M/C797S, endogenous EGFR knockout, three days
Experimental: (§1) HCC827_LTC and HCC827_DTC cell lines were generated by first transducing HCC827 cells (ATCC) with lentiviral particles expressing codon-optimized human EGFR L858R/T790M/C797S (LTC) mutant or Del19/T790M/C797S (DTC) mutant, and then selecting under 5 μg/ml puromycin treatment for a week. The endogenous EGFR alleles were subsequently abolished using the Alt-R™ CRISPR-Cas9 technology (Integrated DNA Technologies). Single clones of HCC827_LTC and HCC827_DTC were selected and validated for endogenous EGFR knockout using Sanger sequencing.
(§2) Cells were seeded in a 96-well plate (Corning 3610) with 90 μL of culture medium per well, and plates were incubated at 37° C. overnight. A 1,000× DMSO stock solution of the desired compound was prepared the following day. A compound dilution plate was prepared by diluting the stock solution 1:100 in the corresponding cell culture medium, 10 μL of the diluted compound solution was added to each 96-well plate well containing the seeded cells. Then, the cells were cultured at 37° C. for three days following compound treatment, 100 μL of CellTiter-Glo reagents (Promega G7573) was added to each well of the 96-well plate. The content of the wells was mixed by shaking continuously for 10 min, and luminescence was measured using Envision (PerkinElmer). The data were analyzed with GraphPad Prism 9 (see FIG. 50).
(§3) Table 6, Table 7, and Table 8 list the cell growth inhibition results, where Gls0 represents the compound concentration to cause 50% cell growth inhibition in comparison with DMSO.

HCC827_DTC = assay: Cell growth inhibition assay (CellTiter-Glo), HCC827_DTC; details: 72 h; Table 8; HCC827 expressing human EGFR Del19/T790M/C797S, endogenous EGFR knockout, three days
Experimental: as §1, §2, §3

HCC827 = assay: Cell growth inhibition assay (CellTiter-Glo), HCC827; details: Homo sapiens, 72 h, Table 8, HCC827 cells, three days
Experimental: as §1, §2, §3

NCI-H2073 = assay: Cell growth inhibition assay (CellTiter-Glo), NCI-H2073; details: 72 h; Table 8; NCI-H2073 cells, three days
Experimental: as §2, with “Then, the cells were cultured at 37° C. for three days following compound treatment, 100 μL of CellTiter-Glo reagents (Promega G7573) was added to each well of the 96-well plate.” left out
as §3

A431 (EGFR_WT) = biological target: T1, A431 (EGFR_WT) (Homo sapiens, UniProt P00533); assay: EGFR degradation assay (western blot), A431 cells; details: compounds 24 h, western blot, read-out: A431 DC50
T1 construct: endogenous in cells; host or cells: A431, NCI-H2073, NCI-H292
T1 sequence (P00533 25-1210): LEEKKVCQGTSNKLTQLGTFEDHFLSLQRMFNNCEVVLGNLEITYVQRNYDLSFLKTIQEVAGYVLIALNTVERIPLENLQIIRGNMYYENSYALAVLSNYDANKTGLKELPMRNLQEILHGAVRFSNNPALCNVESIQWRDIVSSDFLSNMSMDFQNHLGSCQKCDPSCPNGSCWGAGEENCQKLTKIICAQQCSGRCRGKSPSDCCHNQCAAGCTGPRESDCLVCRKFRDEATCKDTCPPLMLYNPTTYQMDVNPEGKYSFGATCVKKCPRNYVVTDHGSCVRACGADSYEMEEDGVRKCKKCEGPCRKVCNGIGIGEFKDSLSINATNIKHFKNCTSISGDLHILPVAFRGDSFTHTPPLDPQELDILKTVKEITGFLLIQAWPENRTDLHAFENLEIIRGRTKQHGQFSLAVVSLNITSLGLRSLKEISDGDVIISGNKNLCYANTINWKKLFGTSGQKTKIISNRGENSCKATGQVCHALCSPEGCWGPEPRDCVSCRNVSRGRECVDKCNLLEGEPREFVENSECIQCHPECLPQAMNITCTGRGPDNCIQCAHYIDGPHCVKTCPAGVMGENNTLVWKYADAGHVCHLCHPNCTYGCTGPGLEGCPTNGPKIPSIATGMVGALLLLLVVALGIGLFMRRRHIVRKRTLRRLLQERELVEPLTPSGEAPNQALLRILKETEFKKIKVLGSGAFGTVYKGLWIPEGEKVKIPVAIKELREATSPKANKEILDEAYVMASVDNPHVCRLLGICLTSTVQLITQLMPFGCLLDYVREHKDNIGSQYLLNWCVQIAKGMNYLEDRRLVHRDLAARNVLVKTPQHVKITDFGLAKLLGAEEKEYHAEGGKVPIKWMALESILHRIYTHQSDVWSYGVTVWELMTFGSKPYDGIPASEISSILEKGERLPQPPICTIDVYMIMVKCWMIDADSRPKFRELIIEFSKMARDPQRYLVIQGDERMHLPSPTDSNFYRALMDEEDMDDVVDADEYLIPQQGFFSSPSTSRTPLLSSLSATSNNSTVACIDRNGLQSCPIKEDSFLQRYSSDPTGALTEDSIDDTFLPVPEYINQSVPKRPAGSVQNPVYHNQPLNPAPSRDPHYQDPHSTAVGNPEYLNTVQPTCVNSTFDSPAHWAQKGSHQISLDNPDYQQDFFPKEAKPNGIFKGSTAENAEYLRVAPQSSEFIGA
Experimental: A431 (EGFR_WT), NCl-H2073 (EGFR_WT), NCl-H292 (EGFR_WT), BaF3_YVAM (Her2_A775insYVAM), BaF3_SVD (EGFR_D770insSVD), BaF3_ASV (EGFR_A776inASV), or BaF3_DTC (EGFR_Exon19del/T790M/C797S) cells were seeded in a 24-well plate at a density of 4×10^5 cells per well for EGFR WT cells and 8× cells per well for EGFR or Her2 mutant cells, and the plates were incubated overnight. The cells were treated with the desired compounds for 24 h. The culture medium was removed, and 100 μL of RIPA buffer (Beyotime, P0013B) containing 1% Protease Inhibitor Cocktail (Bimake, B14001), 1% Phosphatase Inhibitor Cocktail 2 (Sigma, P5726), and 1% Phosphatase Inhibitor Cocktail 3 (Sigma, P0044) were added to lyse the cells. Then, the cell lysates were transferred to 1.5 mL microcentrifuge tubes and centrifuged at 12,000 rpm and 4° C. for 30 min. The supernatants were transferred into new tubes, and the protein concentration was determined using the BCA protein quantification method. All samples were diluted to the same concentration using RIPA buffer, loading buffer was added, samples were denatured, and 15 μg of protein per lane was loaded onto a SurePAGE 4-20% Bis-Tris gel. Samples were separated via electrophoresis in MOPS running buffer at 180 V for 100 min. Then, proteins were transferred onto PVDF membranes using the MiniBlot™ Electrophoretic Transfer Cell Device (Beyotime, E6050). The membrane was blocked using block buffer (LI-COR 927-60001) to prevent non-specific binding. The membrane was incubated with primary antibodies (1:500 dilution, EGFR-CST4405, 1:2000 dilution, Tubulin-ABclonal #AC021) at 4° C. overnight. The membrane was washed three times with 1× TBST buffer for 15 min each. The membrane was incubated with secondary antibodies IRDye 680RD Goat anti-Rabbit IgG Secondary Antibody (1:2000 dilution, LI-COR 926-68071) and IRDye 800CW Goat anti-Mouse IgG Secondary Antibody (1:2000 dilution, LI-COR 926-32210). Finally, the membrane was washed again with 1× TBST buffer 3 times. Fluorescence was detected using the Odyssey CLx Imaging System, and the data were analyzed with Empiria Studio Software and GraphPad Prism 9. Table 4 and Table 5 list the degradation results, where the degradation potency is represented by DC50, the concentration of compounds to cause the degradation of 50% of the corresponding proteins. FIGS. 45-49 show western blots illustrating the EGFR degradative activity of exemplary Compound of the present disclosure and a comparator Compound A in different cell lines 24 h after administration. The Compound referred herein as Compound A is disclosed in WO 2022/171123 A1 (see, compound 133, page 46; published Aug. 18, 2022). WO 2022/171123 A1 discloses phosphine oxide derived molecules with EGFR degradation activity.

BaF3_ASV = assay: Cell growth inhibition assay (CellTiter-Glo), BaF3_ASV; details: 72 h; Table 6; BaF3_ASV cells, three days, CellTiter-Glo; read-out: BaF3_ASV GI50
BaF3_DTC = assay: Cell growth inhibition assay (CellTiter-Glo), BaF3_DTC; details: 72 h; Table 6; BaF3_DTC cells, three days, CellTiter-Glo; read-out: BaF3_DTC GI50
[1] = system: BaF3_DTC (EGFR_Exon19del/T790M/C797S); assay: EGFR degradation assay (western blot), BaF3_DTC cells; details: BaF3_DTC cells (EGFR_Exon19del/T790M/C797S), compounds 24 h, western blot; read-out: BaF3_DTC DC50
Method in brief: (§4)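 Cells seeded overnight, then exposed to compounds for 24 h; lysates run on western blot, EGFR probed with tubulin loading control and fluorescent secondary detection. DC50 = concentration giving 50% EGFR degradation.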

[2] = biological target: T2, BaF3_ASV (EGFR_A776inASV) (Homo sapiens, UniProt P00533, DUP767-769); assay: EGFR degradation assay (western blot), BaF3_ASV cells; details: BaF3_ASV cells, compounds 24 h, western blot; read-out: BaF3_ASV DC50
T2 construct: expressed in transfected cells; host or cells: Ba/F3 (engineered)
T2 sequence (P00533 with tags, fused parts or gaps DUP767-769): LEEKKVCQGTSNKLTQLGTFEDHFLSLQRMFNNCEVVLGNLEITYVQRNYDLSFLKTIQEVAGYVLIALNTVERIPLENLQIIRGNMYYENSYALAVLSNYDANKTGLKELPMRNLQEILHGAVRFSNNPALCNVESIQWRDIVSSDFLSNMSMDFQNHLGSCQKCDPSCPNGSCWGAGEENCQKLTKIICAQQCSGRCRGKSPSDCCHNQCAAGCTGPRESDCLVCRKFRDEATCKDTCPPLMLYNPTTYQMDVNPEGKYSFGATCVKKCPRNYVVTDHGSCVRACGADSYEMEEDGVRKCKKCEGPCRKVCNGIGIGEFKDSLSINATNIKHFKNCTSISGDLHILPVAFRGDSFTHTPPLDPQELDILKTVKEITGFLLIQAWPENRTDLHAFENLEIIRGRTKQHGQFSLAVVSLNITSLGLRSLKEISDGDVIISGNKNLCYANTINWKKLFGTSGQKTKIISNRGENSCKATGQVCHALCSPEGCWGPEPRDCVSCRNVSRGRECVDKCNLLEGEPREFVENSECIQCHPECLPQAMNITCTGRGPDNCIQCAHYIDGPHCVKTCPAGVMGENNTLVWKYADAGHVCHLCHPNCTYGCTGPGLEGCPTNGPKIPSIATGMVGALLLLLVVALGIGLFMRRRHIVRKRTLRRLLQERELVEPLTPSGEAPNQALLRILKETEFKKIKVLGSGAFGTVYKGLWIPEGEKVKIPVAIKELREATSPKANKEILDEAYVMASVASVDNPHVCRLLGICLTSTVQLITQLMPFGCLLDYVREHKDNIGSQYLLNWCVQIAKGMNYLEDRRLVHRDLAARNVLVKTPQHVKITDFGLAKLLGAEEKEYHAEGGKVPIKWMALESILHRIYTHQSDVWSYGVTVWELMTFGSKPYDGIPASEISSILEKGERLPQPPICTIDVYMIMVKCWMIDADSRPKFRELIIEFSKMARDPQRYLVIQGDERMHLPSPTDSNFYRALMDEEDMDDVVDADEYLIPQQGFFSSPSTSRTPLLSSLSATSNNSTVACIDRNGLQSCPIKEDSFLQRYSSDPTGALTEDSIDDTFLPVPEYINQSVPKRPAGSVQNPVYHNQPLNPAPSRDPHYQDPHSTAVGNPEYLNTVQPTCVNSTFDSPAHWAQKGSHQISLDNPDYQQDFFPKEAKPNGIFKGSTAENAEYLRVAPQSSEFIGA
Method in brief: as §4

Row | Structure (SMILES) | GI50 (A431; Table 8) | GI50 (HCC827_LTC) | GI50 (HCC827_DTC) | GI50 (HCC827) | GI50 (NCI-H2073) | DC50 (A431 (EGFR_WT)) | GI50 (A431; Table 6, CellTiter-Glo) | GI50 (BaF3_ASV) | GI50 (BaF3_DTC) | DC50 [1] | DC50 [2]
1 | COc1cc(N2CCC(CN3CCN(c4ccc5c(c4)C(=O)N(C4CCC(=O)NC4=O)C5=O)CC3)CC2)c(-c2cnn(C)c2)cc1Nc1ncc(Br)c(Nc2ccc3nccnc3c2NS(C)(=O)=O)n1 (stereo not shown) [Compound 83, N-(6-((5-bromo-2-((4-(4-((4-(2-(2,6-dioxopiperidin-3-yl)-1,3-dioxoisoindolin-5-yl)piperazin-1-yl)methyl)piperidin-1-yl)-2-methoxy-5-(1-methyl-1H-pyrazol-4-yl)phenyl)amino)pyrimidin-4-yl)amino)quinoxalin-5-yl)methanesulfonamide] | > 3000 nM | 8.58 nM | 19.4 nM | 5.51 nM | > 3000 nM | – | – | – | – | – | –
2 | COc1cc(N2CCC(N3CCN(c4ccc5c(c4)C(=O)N(C4CCC(=O)NC4=O)C5=O)CC3)CC2)c(-c2cnn(C)c2)cc1Nc1ncc(Br)c(Nc2ccc3nccnc3c2NS(C)(=O)=O)n1 (stereo not shown) [Compound 82, N-(6-((5-bromo-2-((4-(4-(4-(2-(2,6-dioxopiperidin-3-yl)-1,3-dioxoisoindolin-5-yl)piperazin-1-yl)piperidin-1-yl)-2-methoxy-5-(1-methyl-1H-pyrazol-4-yl)phenyl)amino)pyrimidin-4-yl)amino)quinoxalin-5-yl)methanesulfonamide] | > 3000 nM | 9.38 nM | 30.8 nM | 2.82 nM | > 3000 nM | – | – | – | – | – | –
3 | COc1cc(N2CCC(N3CC4(CN(C(=O)CC5(O)CCN(c6ccc(NC7CCC(=O)NC7=O)cc6F)CC5)C4)C3)CC2)c(-c2cnn(C)c2)cc1Nc1ncc(Br)c(Nc2ccc3nccnc3c2NS(C)(=O)=O)n1 (stereo not shown) [Compound 81, N-(6-((5-bromo-2-((4-(4-(6-(2-(1-(4-((2,6-dioxopiperidin-3-yl)amino)-2-fluorophenyl)-4-hydroxypiperidin-4-yl)acetyl)-2,6-diazaspiro[3.3]heptan-2-yl)piperidin-1-yl)-2-methoxy-5-(1-methyl-1H-pyrazol-4-yl)phenyl)amino)pyrimidin-4-yl)amino)quinoxalin-5-yl)methanesulfonamide] | 746 nM | 2.03 nM | 4.21 nM | 2.41 nM | > 3000 nM | – | – | – | – | – | –
4 | COc1cc(N2CCN(CC3CCN(c4ccc5c(c4)C(=O)N(C4CCC(=O)NC4=O)C5=O)CC3)CC2)c(-c2cnn(C)c2)cc1Nc1ncc(Br)c(Nc2ccc3nccnc3c2NS(C)(=O)=O)n1 (stereo not shown) [Compound 84, N-(6-((5-bromo-2-((4-(4-((1-(2-(2,6-dioxopiperidin-3-yl)-1,3-dioxoisoindolin-5-yl)piperidin-4-yl)methyl)piperazin-1-yl)-2-methoxy-5-(1-methyl-1H-pyrazol-4-yl)phenyl)amino)pyrimidin-4-yl)amino)quinoxalin-5-yl)methanesulfonamide] | > 3000 nM | 3.06 nM | 10.7 nM | 1.18 nM | > 3000 nM | – | – | – | – | – | –
5 | CCc1cc(Nc2ncc(Br)c(Nc3ccc4nccnc4c3NS(C)(=O)=O)n2)c(OC)cc1N1CCC(N2CC[C@@H](CN3CCN(c4ccc5c(c4)CN([C@H]4CCC(=O)NC4=O)C5=O)CC3)C2)CC1 [Compound 92] | – | – | – | – | – | > 1000 nM | > 1000 nM | 92.9 nM | 14.6 nM | 3.97 nM | 24.5 nM
6 | COc1cc(N2CCN(C(=O)CN3CCC(c4ccc(NC5CCC(=O)NC5=O)cc4)CC3)CC2)c(-c2cnn(C)c2)cc1Nc1ncc(Br)c(Nc2ccc3nccnc3c2NS(C)(=O)=O)n1 (stereo not shown) [Compound 79, N-(6-((5-bromo-2-((4-(4-(2-(4-(4-((2,6-dioxopiperidin-3-yl)amino)phenyl)piperidin-1-yl)acetyl)piperazin-1-yl)-2-methoxy-5-(1-methyl-1H-pyrazol-4-yl)phenyl)amino)pyrimidin-4-yl)amino)quinoxalin-5-yl)methanesulfonamide] | 164 nM | 0.77 nM | 2.6 nM | 0.22 nM | 654 nM | – | – | – | – | – | –
7 | CCc1cc(Nc2ncc(Br)c(Nc3ccc4nccnc4c3NS(C)(=O)=O)n2)c(OC)cc1N1CCC(N2CCN(C(=O)C3CCN(c4ccc5c(c4)CN(C4CCC(=O)NC4=O)C5=O)CC3)CC2)CC1 (stereo not shown) [Compound 10, N-(6-((5-bromo-2-((4-(4-(4-(1-(2-(2,6-dioxopiperidin-3-yl)-1-oxoisoindolin-5-yl)piperidine-4-carbonyl)piperazin-1-yl)piperidin-1-yl)-5-ethyl-2-methoxyphenyl)amino)pyrimidin-4-yl)amino)quinoxalin-5-yl)methanesulfonamide] | – | – | – | – | – | > 1000 nM | > 1000 nM | 72.7 nM | 9.6 nM | 1.21 nM | 20 nM

Source: US20250002473A1, “QUINOXALINE DERIVED SULFONAMIDES WITH EGFR DEGRADATION ACTIVITIES AND THEIR USES THEREOF” (Accutar Biotechnology Inc., priority 2023, published 2025)
